± gives the expanded uncertainty stated by the source.
Assays:
[1] = mn = molality of the nth substance listed, in mol/kg; conditions: 101 kPa, Liquid, Vibrating tube method
[2] = 101.33 kPa, Liquid, Vibrating tube method

OCC1CCCCN1 (stereo unspecified) [2-(hydroxymethyl)piperidine] + O
mass density [kg/m3], [1]
Conditions	m1 = 0.0476	m1 = 0.0676	m1 = 0.0864	m1 = 0.1214	m1 = 0.1524	m1 = 0.1766	m1 = 0.2009	m1 = 0.2264	m1 = 0.2609
293.15 K	998.6 ± 0.2	998.75 ± 0.2	998.87 ± 0.2	999.15 ± 0.2	999.37 ± 0.2	999.52 ± 0.2	999.71 ± 0.2	999.87 ± 0.2	1000.11 ± 0.2
298.15 K	997.46 ± 0.2	997.6 ± 0.2	997.72 ± 0.2	997.99 ± 0.2	998.2 ± 0.2	998.34 ± 0.2	998.53 ± 0.2	998.68 ± 0.2	998.91 ± 0.2
303.15 K	996.06 ± 0.2	996.19 ± 0.2	996.31 ± 0.2	996.57 ± 0.2	996.77 ± 0.2	996.91 ± 0.2	997.09 ± 0.2	997.24 ± 0.2	997.46 ± 0.2
308.15 K	994.44 ± 0.2	994.56 ± 0.2	994.68 ± 0.2	994.93 ± 0.2	995.13 ± 0.2	995.26 ± 0.2	995.43 ± 0.2	995.58 ± 0.2	995.79 ± 0.2
313.15 K	992.59 ± 0.2	992.74 ± 0.2	992.85 ± 0.2	993.1 ± 0.2	993.28 ± 0.2	993.41 ± 0.2	993.58 ± 0.2	993.72 ± 0.2	993.92 ± 0.2
318.15 K	990.6 ± 0.2	990.72 ± 0.2	990.83 ± 0.2	991.07 ± 0.2	991.25 ± 0.2	991.37 ± 0.2	991.53 ± 0.2	991.66 ± 0.2	991.86 ± 0.2

OCC1CCCNC1 (stereo unspecified) [3-(hydroxymethyl)piperidine] + O
mass density [kg/m3], [1]
Conditions	m1 = 0.0562	m1 = 0.0841	m1 = 0.1205	m1 = 0.1576	m1 = 0.188	m1 = 0.2257	m1 = 0.2728	m1 = 0.3059	m1 = 0.3481
293.15 K	999.04 ± 0.2	999.09 ± 0.2	999.36 ± 0.2	999.67 ± 0.2	999.94 ± 0.2	1000.2 ± 0.2	1000.48 ± 0.2	1000.72 ± 0.2	1000.95 ± 0.2
298.15 K	997.9 ± 0.2	997.94 ± 0.2	998.2 ± 0.2	998.52 ± 0.2	998.77 ± 0.2	999.02 ± 0.2	999.285 ± 0.2	999.52 ± 0.2	999.74 ± 0.2
303.15 K	996.5 ± 0.2	996.53 ± 0.2	996.79 ± 0.2	997.1 ± 0.2	997.34 ± 0.2	997.58 ± 0.2	997.835 ± 0.2	998.06 ± 0.2	998.27 ± 0.2
308.15 K	994.87 ± 0.2	994.9 ± 0.2	995.16 ± 0.2	995.46 ± 0.2	995.7 ± 0.2	995.93 ± 0.2	996.165 ± 0.2	996.39 ± 0.2	996.59 ± 0.2
313.15 K	993.05 ± 0.2	993.07 ± 0.2	993.32 ± 0.2	993.61 ± 0.2	993.85 ± 0.2	994.07 ± 0.2	994.3 ± 0.2	994.52 ± 0.2	994.71 ± 0.2
318.15 K	991.04 ± 0.2	991.06 ± 0.2	991.3 ± 0.2	991.58 ± 0.2	991.82 ± 0.2	992.02 ± 0.2	992.25 ± 0.2	992.46 ± 0.2	992.64 ± 0.2

OCc1ccccn1 [α-picolyl alcohol]
[2]
Conditions	mass density [kg/m3]
291.15 K	1133.6 ± 2.5
292.15 K	1133.1 ± 2.5
293.15 K	1132.4 ± 2.5
295.15 K	1130.7 ± 2.5
297.15 K	1129.3 ± 2.4
298.15 K	1128.7 ± 2.4
299.15 K	1127.7 ± 2.4
300.15 K	1127.1 ± 2.4
302.15 K	1125.6 ± 2.4
303.15 K	1124.8 ± 2.4
304.15 K	1124 ± 2
306.15 K	1122.4 ± 2.4
308.15 K	1120.8 ± 2.4
310.15 K	1119.4 ± 2.4
312.15 K	1118.1 ± 2.4
313.15 K	1117.2 ± 2.4
315.15 K	1115.6 ± 2.4
317.15 K	1114.2 ± 2.4
318.15 K	1113.5 ± 2.4

OCc1cccnc1 [β-picolyl alcohol]
[2]
Conditions	mass density [kg/m3]
291.15 K	1138.2 ± 1
292.15 K	1137.5 ± 1
293.15 K	1136.8 ± 1
295.15 K	1135.3 ± 1
297.15 K	1134.1 ± 1
298.15 K	1133.5 ± 1
299.15 K	1132.6 ± 1
300.15 K	1131.8 ± 1
302.15 K	1130.4 ± 1
303.15 K	1129.6 ± 1
304.15 K	1128.9 ± 1
306.15 K	1127.5 ± 1
308.15 K	1125.9 ± 1
310.15 K	1124.7 ± 1
312.15 K	1123.5 ± 1
313.15 K	1122.6 ± 1
315.15 K	1121.2 ± 1
317.15 K	1120 ± 1
318.15 K	1119.3 ± 1
